Reference: PMC6540015, “New Quinolone-Based Thiosemicarbazones Showing Activity Against Plasmodium falciparum and Mycobacterium tuberculosis” (Molecules, 2019)
Converted amounts (≈) assume the structure as drawn. Like-named read-outs stand apart in the source and are kept apart here.

What was measured:
[1] = system: M. tuberculosis H37Rv strain; test: microbe, parasite or virus in culture; format: cell-based; details: Mycobacterium tuberculosis, concentration inhibiting 90% of bacterial population; for MIC: read-out: MIC90 H37Rv
[2] = system: 3D7 strain of Plasmodium falciparum; test: In vitro anti-plasmodial pLDH assay; format: cell-based
[3] = Plasmodium falciparum, 3D7, 48 h, read-out: IC50 Pf 3D7, chloroquine sensitive strain 3D7 of P. falciparum, na = not active
[4] = Plasmodium falciparum, chloroquine sensitive strain 3D7 of P. falciparum, 48 h, na = not active, read-out: IC50 Pf 3D7

Row | SMILES | melting point [°C] | MIC90 [1] [µM] | IC50 [2, 3] [µM] | MIC [1] [µM] | IC50 [2, 4] [µM] | IC50 Pf 3D7 ([2]; chloroquine sensitive strain 3D7 of P. falciparum, 48 h, na = not active) | IC50 ([2]; read-out: IC50 Pf 3D7, chloroquine sensitive strain 3D7 of P. falciparum, 48 h, na = not active) [µM]
1 | COCCNC(=O)c1cn(Cc2ccc(Cl)cc2Cl)c2ccc(/C(C)=N/NC(N)=S)cc2c1=O [Compound 19, (E)-6-(1-(2-carbamothioylhydrazono)ethyl)-1-(2,4-dichlorobenzyl)-N-(2-methoxyethyl)-4-oxo-1,4-dihydroquinolone-3-carboxamide] | 209 to 211 | 10.2 (≈ 5.31 µg/mL) |  |  |  |  | 
2 | C/C(=N\NC(N)=S)c1ccc2c(c1)c(=O)c(C(=O)NCCNCCO)cn2Cc1ccccc1 [Compound 13, (E)-1-benzyl-6-(1-(2-carbamothioylhydrazono)ethyl)-N-(2-((2-hydroxyethyl)amino)ethyl)-4-oxo-1,4-dihydroquinolone-3-carboxamide] | 197 to 199 | 2.7 (≈ 1.3 µg/mL) | 4.1 | 2.7 (≈ 1.3 µg/mL) |  |  | 
3 | CCOC(=O)c1cn(Cc2ccc(Cl)cc2Cl)c2ccc(/C(C)=N/NC(N)=S)cc2c1=O [Compound 21, Ethyl-(E)-6-(1-(2-carbamothioylhydrazono)ethyl)-1-(2,4-dichlorobenzyl)-4-oxo-1,4-dihydroquinolone-3-carboxylate] | 211 to 213 | 31.6 (≈ 15.5 µg/mL) |  | 31.6 (≈ 15.5 µg/mL) |  |  | 
4 | COCCNC(=O)c1cn(Cc2ccccc2)c2ccc(/C(C)=N/NC(N)=S)cc2c1=O [Compound 17, (E)-1-benzyl-6-(1-(2-carbamothioylhydrazono)ethyl)-N-(2-methoxyethyl)-4-oxo-1,4-dihydroquinolone-3-carboxamide] | 199 to 200 | 44.2 (≈ 20 µg/mL) | 24.6 | 44.2 (≈ 20 µg/mL) |  |  | 
5 | CCOC(=O)c1c[nH]c2ccc(C(C)=O)cc2c1=O [Compound 8] |  |  |  |  | 4 |  | 
6 | C/C(=N\NC(N)=S)c1ccc2c(c1)c(=O)c(C(=O)NCCNCCO)cn2Cc1ccc(C(F)(F)F)cc1 [Compound 15, (E)-6-(1-(2-carbamothioylhydrazono)ethyl)-N-(2-((2-hydroxyethyl)amino)ethyl)-4-oxo-1-(4-(trifluoromethyl)benzyl)-1,4-dihydroquinolone-3-carboxamide] | 199 to 201 | 2 (≈ 1.1 µg/mL) | 1.2 |  |  |  | 
7 | CCn1cc(C(=O)NCCNCCO)c(=O)c2cc(/C(C)=N/NC(N)=S)ccc21 [Compound 12, (E)-6-(1-(2-carbamothioylhydrazono)ethyl)-1-ethyl-N-(2-((2-hydroxyethyl)amino)ethyl)-4-oxo-1,4-dihydroquinolone-3-carboxamide] | 183 to 185 | 73.4 (≈ 30.7 µg/mL) |  | 73.4 (≈ 30.7 µg/mL) |  | not active | 
8 | CCN(CC)CCCC(C)Nc1ccnc2cc(Cl)ccc12 (stereo not drawn) [CQ, Chloroquine, reference compound] |  |  |  |  | 0.012 |  | 
9 | CCn1cc(C(=O)NCCCn2ccnc2)c(=O)c2cc(/C(C)=N/NC(N)=S)ccc21 [Compound 11, (E)-N-(3-(1H-imidazol-1-yl)propyl)-6-(1-(2-carbamothioylhydrazono)ethyl)-1-ethyl-4-oxo-1,4-dihydroquinolone-3-carboxamide] | 187 to 189 | > 125 |  | > 125 | 3.7 |  | 
10 | CO[C@H]1/C=C/O[C@@]2(C)Oc3c(C)c(O)c4c(O)c(c(/C=N/N5CCN(C)CC5)c(O)c4c3C2=O)NC(=O)/C(C)=C\C=C\[C@H](C)[C@H](O)[C@@H](C)[C@@H](O)[C@@H](C)[C@H](OC(C)=O)[C@@H]1C [RF, Rifampicin, reference compound] |  | 0.062 (≈ 0.051 µg/mL) |  |  |  |  | 
11 | COCCNC(=O)c1cn(Cc2ccc(Br)cc2)c2ccc(/C(C)=N/NC(N)=S)cc2c1=O [Compound 18, (E)-1-(4-bromobenzyl)-6-(1-(2-carbamothioylhydrazono)ethyl)-N-(2-methoxyethyl)-4-oxo-1,4-dihydroquinolone-3-carboxamide] | 204 to 206 | 15 (≈ 7.96 µg/mL) | 9.9 |  |  |  | 
12 | C/C(=N\NC(N)=S)c1ccc2c(c1)c(=O)c(C(=O)NCCNCCO)cn2Cc1ccc(Cl)cc1Cl [Compound 16, (E)-6-(1-(2-carbamothioylhydrazono)ethyl)-1-(2,4-dichlorobenzyl)-N-(2-((2-hydroxyethyl)amino)ethyl)-4-oxo-1,4-dihydroquinolone-3-carboxamide] | 205 to 207 | 4.8 (≈ 2.64 µg/mL) | 3.1 | 4.8 (≈ 2.64 µg/mL) |  |  | 
13 | C/C(=N\NC(N)=S)c1ccc2c(c1)c(=O)c(C(=O)NCCNCCO)cn2Cc1ccc(Br)cc1 [Compound 14, (E)-1-(4-bromobenzyl)-6-(1-(2-carbamothioylhydrazono)ethyl)-N-(2-((2-hydroxyethyl)amino)ethyl)-4-oxo-1,4-dihydroquinolone-3-carboxamide] | 200 to 202 | 10.3 (≈ 5.76 µg/mL) | 4 | 10.3 (≈ 5.76 µg/mL) |  |  | 4.7
